Reference: PubChem BioAssay AID463203 (Broad Institute, 2010)
The source made the active and inactive calls.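 The calls were made as follows: active = more than half of replicate measurements showing over 20% loss of kinase signal relative to plate controls; inconclusive = some but at most half of replicates over 20% loss; inactive = no replicate over 20% signal loss.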

Biological target: Glycogen synthase kinase-3 alpha (Homo sapiens) (UniProt P49840)
Assay: concentration-response blocking of human GSK3A – biochemical, luminescence, cell-free homogeneous, retest, dose response (AID 463203)
Conditions: GSK-3 alpha enzyme, ADP-Glo luminescence, 60 min

Sequence of Glycogen synthase kinase-3 alpha (Homo sapiens) (P49840 whole entry, looked up): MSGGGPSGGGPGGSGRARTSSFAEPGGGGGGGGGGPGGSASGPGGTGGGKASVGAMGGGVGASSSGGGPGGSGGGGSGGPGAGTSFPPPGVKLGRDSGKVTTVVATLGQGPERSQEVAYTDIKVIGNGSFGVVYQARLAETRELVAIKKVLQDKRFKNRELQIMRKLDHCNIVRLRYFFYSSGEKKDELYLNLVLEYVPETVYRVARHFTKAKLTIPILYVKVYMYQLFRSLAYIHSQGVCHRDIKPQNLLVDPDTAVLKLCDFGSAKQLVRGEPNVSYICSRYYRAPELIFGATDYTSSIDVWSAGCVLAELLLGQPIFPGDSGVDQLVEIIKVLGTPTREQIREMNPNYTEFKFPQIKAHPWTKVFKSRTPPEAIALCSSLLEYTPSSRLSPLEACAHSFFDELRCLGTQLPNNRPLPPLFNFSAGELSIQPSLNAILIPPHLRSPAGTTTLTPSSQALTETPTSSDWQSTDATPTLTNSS

Compound | AC50
N#Cc1sc2nc3c(c(-c4ccco4)c2c1N)CCCC3 | 2.42 µM
CCOC(=O)C1=C(c2ccccc2)Nc2ncnn2C1c1cccc(O)c1 (stereo not drawn) | 22.9 µM
O=C1CCCC/C1=C\Nc1ccc(O)cc1 | 21.6 µM
CCOc1ccc(C2C3=C(CCCC3=O)Nc3ccc4ncccc4c32)cc1 (stereo not drawn) | > 30 µM (inactive)
COc1cc(C(=O)Oc2cc(C)cc(C)c2)cc(OC)c1OC | > 30 µM (inactive)
Cc1cc(C)c(NC(=O)C2CCCN2CCOC(=O)c2cccc([N+](=O)[O-])c2)c(C)c1 (stereo not drawn) | 13.6 µM
CCOc1ccc(-c2nc(N)ncc2-c2ccccc2)c(O)c1 | 20.7 µM
C#CCOCCOCCOCCNc1nc(N2CCOCC2)nc(N2CCN(C(=O)[C@H](CCC(=O)O)n3cc([C@@H](N)CCCCN)nn3)CC2)n1 | > 30 µM (inactive)
COc1ccccc1C(=O)NNC(=O)c1cccc(Br)c1 | > 30 µM (inactive)
O=[N+]([O-])c1cc(S(=O)(=O)c2ccc(N3CCCCC3)c([N+](=O)[O-])c2)ccc1N1CCCCC1 | > 30 µM (inactive)
COc1ccc(C(=O)O/N=C(\N)c2ccccn2)c(OC)c1 | > 30 µM (inactive)
CCOC(=O)c1cc(-c2ccc(C)cc2)n(CCC(=O)NC(C)CC)c1C (stereo not drawn) | > 30 µM (inactive)
CC(=O)Nc1c(C)ccc2nsnc12 | > 30 µM (inactive)
COc1ccc(-c2cc(C(F)(F)F)nc(SCCC(=O)NCc3ccccc3)n2)cc1 | > 30 µM (inactive)
c1ccc2c(c1)ccc1nnc(-c3ccc4c(c3)OCO4)n12 | > 30 µM (inactive)
Cc1cc(NCc2ccco2)n2c(nc3ccccc32)c1C#N | > 30 µM (inactive)
CC1(C)CC(=O)C2=C(C1)Nc1nc(SCCN3CCOCC3)[nH]c(=O)c1C2c1cccs1 (stereo not drawn) | > 30 µM (inactive)
CN(C)Cc1c(C(=O)N/N=C/c2ccc(-c3ccccc3)cc2)nnn1-c1nonc1N | > 30 µM (inactive)
COc1ccc(/C=N/NC(=O)c2nnn(-c3nonc3N)c2-c2cccs2)c(OC)c1 | 1.04 µM
O=C1/C(=C/c2ccc(O)c(O)c2)Oc2cc(O)ccc21 | 10.5 µM
Cc1ccc(Sc2ccc(NC(=O)CCl)cc2)cc1C | > 30 µM (inactive)
c1ccc2[nH]c(Cn3nnc4ccccc43)nc2c1 | > 30 µM (inactive)
Cc1ccc(C(=O)N/C(=C/c2ccc(-c3cccc([N+](=O)[O-])c3)o2)C(=O)NC(C)C)cc1 | > 30 µM (inactive)
Cc1cc(NC(=O)c2cccc(S(=O)(=O)N3CC(c4ccccc4)CC3=O)c2)no1 (stereo not drawn) | > 30 µM (inactive)
O=[N+]([O-])c1ccc(Nc2nc(Cl)nc(NCCO)n2)cc1 | > 30 µM (inactive)

Compound | AC50
O=C(CSc1nc2[nH]ncc2c(=O)n1-c1ccccc1Br)NCc1ccccc1Cl | > 30 µM (inactive)
COc1ccc(-c2nc(N)ncc2-c2ccc(OC)c(OC)c2)c(O)c1 | 29.2 µM
CC1(C)OC2OC(COC(=O)c3ccccc3)C3OC(C)(C)OC3C2O1 (stereo not drawn) | > 30 µM (inactive)
Cc1cccc(C(=O)OCC(=O)Nc2c(C)n(C)n(-c3ccccc3)c2=O)c1 | > 30 µM (inactive)
Cn1c2ccc(Cl)cc2c2nc3ccccc3nc21 | > 30 µM (inactive)
COc1ccccc1NC(=O)c1cc2ccc(O)cc2o/c1=N\O | > 30 µM (inactive)
CC(=O)c1cccc(-c2ccc3c(=O)[nH]c(Nc4ccccc4)cc3c2)c1 | > 30 µM (inactive)
Cc1ccc2nc3c(cc2c1)c(NS(=O)(=O)c1ccccc1)nn3CC(C)C | > 30 µM (inactive)
O=C(NC1(C(F)(F)F)NC(=O)N(Cc2cccnc2)C1=O)c1ccncc1 (stereo not drawn) | > 30 µM (inactive)
O=C1Nc2ccccc2C1(O)c1ccccc1O (stereo not drawn) | > 30 µM (inactive)
CCOC(=O)c1c2c(n(C)c1C)C(=O)C(=O)c1ccc(Br)cc1-2 | 15 µM
CCOc1ccc(Cn2nnc(C(=O)Nc3ccc(OC)cc3OC)c2N)cc1 | > 30 µM (inactive)
Cc1cccc(C(=O)Nc2cccc(-c3cnc4ccccc4n3)c2)c1 | > 30 µM (inactive)
CCOC(=O)N1CCC(N2CCN(S(=O)(=O)c3ccc(OC)cc3)CC2)CC1 | > 30 µM (inactive)
N#Cc1c2ccc(O)cc2n2ccccc12 | 3.56 µM
CNc1nc(Cl)c(SC)c(NC2CCCCC2)n1 | > 30 µM (inactive)
CC(=O)Nc1ccc(Nc2ncnc(N)c2[N+](=O)[O-])cc1 | > 30 µM (inactive)
COc1cc(SC)ccc1C(=O)Nc1nc(C)cc(C)n1 | > 30 µM (inactive)
Cc1cc(N2CCN(c3ccccc3)CC2)n2cc(-c3ccccc3)nc2n1 | > 30 µM (inactive)
COc1ccccc1C(=O)O/N=C(\N)c1ccccn1 | > 30 µM (inactive)
O=C(c1ccc(Cn2cnnn2)cc1)N1CCCC(Nc2ccc(F)c(F)c2)C1 (stereo not drawn) | 16.1 µM
Cc1ccc(C(=O)c2cc(C)sc2NC(=O)CN2CCN(C(=O)c3ccco3)CC2)cc1 | > 30 µM (inactive)
CCOC(=O)c1cccnc1NC(=O)c1ccncc1 | > 30 µM (inactive)
Cc1c(C(=O)OC(C)C)[nH]c2c1C(=O)CC(C)(C)C2 | > 30 µM (inactive)
O=C(COC(=O)Cc1ccc(F)cc1)Nc1ccc(Cl)cn1 | 14.1 µM

Compound | AC50
Oc1ccc(-c2nnc(-c3ccc(O)cc3)nn2)cc1 | > 30 µM (inactive)
O=c1c2ccccc2[nH]c2ccccc12 | > 30 µM (inactive)
CN(C)C(=S)Nc1ccc([N+](=O)[O-])cc1 | > 30 µM (inactive)
Nn1c(SCc2ccccc2F)nnc1-c1ccncc1 | > 30 µM (inactive)
N#Cc1c(-c2ccccc2Cl)c2c([nH]c1=O)-c1ccccc1OC2 | > 30 µM (inactive)
COc1ccccc1NC(=O)CSc1ccc2nnc(-c3ccc(C)cc3)n2n1 | 19.2 µM
C/C(=N\NC(=O)c1nnn(-c2nonc2N)c1CN(C)C)c1ccco1 | > 30 µM (inactive)
C=C(C)CSc1nnc([C@@H](N)Cc2c[nH]c3ccccc23)o1 | > 30 µM (inactive)
Cc1cccc(C)c1NC(=O)COC(=O)Cc1ccsc1 | > 30 µM (inactive)
CC(C)CCNc1nc(N)c([N+](=O)[O-])c(N2CCCCCC2)n1 | 8.86 µM
CC1=C(C(=O)OCc2ccc3c(c2)OCO3)C(c2ccccc2OCc2ccccc2)NC(=O)N1 (stereo not drawn) | > 30 µM (inactive)
O=C(Nc1ccccc1C(=O)NC1CCCCC1)c1ccccc1 | > 30 µM (inactive)
COc1ccc2[nH]c(C)c(CN3CCCCC3)c(=O)c2c1 | > 30 µM (inactive)
O=[N+]([O-])c1c(NCCCO)cc(Sc2nc3ccccc3s2)c2nonc12 | > 30 µM (inactive)
COc1cccc(-n2c(SCC(N)=O)nnc2-c2ccco2)c1 | > 30 µM (inactive)
NC(=O)c1c(NC(=O)CN2C(=O)NC(Cc3ccccc3)C2=O)sc2c1CCC2 (stereo not drawn) | 20.3 µM
O=C(Nc1ccccc1N1CCN(C(=O)c2ccccc2)CC1)c1ccc(Br)o1 | 3.51 µM
COc1ccc(/C=C2\Oc3cc(OCC(=O)N4CCC[C@H]4C(=O)O)ccc3C2=O)c(OC)c1 | > 30 µM (inactive)
CN(C(=O)/C=C/c1ccc2c(c1)OCO2)c1ccccc1 | 6.73 µM
COCCNc1nc(N)c([N+](=O)[O-])c(NCc2ccccc2)n1 | 7.15 µM
CCc1ccc(NC(=O)N[C@H](C(=O)O)C(C)CC)cc1 (stereo partly drawn) | > 30 µM (inactive)
C[C@H](CO)N1C[C@H](C)[C@@H](CN(C)S(=O)(=O)c2ccccc2)Oc2c(NS(=O)(=O)c3ccc(F)cc3)cccc2C1=O | > 30 µM (inactive)
CCn1c2ccc(F)cc2c2nc3ccccc3nc21 | > 30 µM (inactive)
